Experimental data taken from paper PMC8303725 (International Journal of Molecular Sciences, 2021).
Like-named read-outs stand apart in the source and are kept apart here.

Experiments:
[1] = biological target: T1, Human Topo I (topoisomerase I) (Homo sapiens, UniProt P11387); assay: Topo I DNA relaxation fluorescence plate assay (Inspiralis); assay type: biochemical
T1 construct: gene TOP1
T1 sequence (P11387 2-765): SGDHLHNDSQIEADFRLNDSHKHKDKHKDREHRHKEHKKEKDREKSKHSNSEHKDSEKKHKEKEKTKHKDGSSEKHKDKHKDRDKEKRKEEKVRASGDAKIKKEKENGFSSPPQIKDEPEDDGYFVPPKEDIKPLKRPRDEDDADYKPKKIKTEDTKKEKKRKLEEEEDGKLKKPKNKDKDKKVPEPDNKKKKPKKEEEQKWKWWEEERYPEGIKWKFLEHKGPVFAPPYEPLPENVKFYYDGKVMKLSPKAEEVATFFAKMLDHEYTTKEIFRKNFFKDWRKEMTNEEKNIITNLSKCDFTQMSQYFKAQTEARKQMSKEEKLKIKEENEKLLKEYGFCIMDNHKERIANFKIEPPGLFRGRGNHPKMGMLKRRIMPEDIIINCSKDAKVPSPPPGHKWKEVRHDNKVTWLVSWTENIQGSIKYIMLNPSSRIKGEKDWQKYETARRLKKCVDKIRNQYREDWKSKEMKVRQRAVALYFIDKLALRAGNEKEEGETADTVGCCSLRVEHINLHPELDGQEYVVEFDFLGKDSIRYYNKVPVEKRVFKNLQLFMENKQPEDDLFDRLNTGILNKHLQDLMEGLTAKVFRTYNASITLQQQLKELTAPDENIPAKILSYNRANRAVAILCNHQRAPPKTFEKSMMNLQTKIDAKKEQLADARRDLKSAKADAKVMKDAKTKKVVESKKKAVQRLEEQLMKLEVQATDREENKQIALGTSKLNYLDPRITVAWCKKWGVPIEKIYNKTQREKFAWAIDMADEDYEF

[2] = tested on: nicked decamer 1 (nicked DNA duplex with PEG(6) tethers) (DNA, duplex, nick between T5 and G6; PEG6 tether at both ends of the duplex, joining the strands into one chain) GCGTT/GTCGC/GCGACAACGC; assay: MALDI-MS of reaction product; conditions: 25 mM NaCl, 25 mM K3PO4; covalent; biohybrid peak m/z 7290.9; pH 6
[3] = tested on: nicked decamer 1 (nicked DNA duplex with PEG(6) tethers) (DNA, duplex, nick between T5 and G6; PEG6 tether at both ends of the duplex, joining the strands into one chain) GCGTT/GTCGC/GCGACAACGC; assay: DOSY NMR; conditions: 25 mM NaCl, 25 mM K3PO4; D2O, pH 6, 25 °C; filtered mother liquor; equal diffusion coefficients; bound species may include bioconjugate, 4, SN38
[4] = tested on: nicked decamer 1 (nicked DNA duplex with PEG(6) tethers) (DNA, duplex, nick between T5 and G6; PEG6 tether at both ends of the duplex, joining the strands into one chain) GCGTT/GTCGC/GCGACAACGC; assay: 1H/13C HSQC with 24-13C compound; conditions: 25 mM NaCl, 25 mM K3PO4; covalent; pH 6; 298 K; site tentatively NH2 of a base in nick

CCc1c2c(nc3ccc(O)cc13)-c1cc3c(c(=O)n1C2)COC(=O)[C@]3(O)CC [SN38]
IC50 ([1]; read-out: IC50): 40.3 µM

CCc1c2c(nc3ccc(O)c(CNC)c13)-c1cc3c(c(=O)n1C2)COC(=O)[C@]3(O)CC [compound 2, 7-ethyl-9-(N-methylamino)methyl-10-hydroxycamptothecin]
binding [2]: yes
IC50 [1]: 101 µM

CCc1c2c(nc3ccc(O)c(CN4CCOCC4)c13)-c1cc3c(c(=O)n1C2)COC(=O)[C@]3(O)CC [compound 3, 7-ethyl-9-(N-morpholino)methyl-10-hydroxycamptothecin]
IC50 [1]: 48.7 µM
binding [3]: yes
binding [4]: yes
